# Values quoted from earlier work, collected in US9034622B2, “Preparation for photodynamic control of microorganisms and use thereof” (priority 2004, dated 2015).
# Tests used:
# isolated perfused heart = details: perfusate enriched with GSH
# [1] = test system: reperfusion-induced damage or the extent of the myocardial infarct; details: intravenous glutathione administration; pigs pre-treated with glutathione synthesis inhibitor; ischemia/reperfusion
smiles,measurement,setting,value
"N[C@@H](CCC(=O)N[C@@H](CS)C(=O)NCC(=O)O)C(=O)O [glutathione, Glutathione]",recovery of ventricle function after ischemia and reperfusion,isolated perfused heart,better recovery of ventricle function
same,reperfusion-induced damage or extent of the myocardial infarct,[1],could be reduced
